# From publication PMC9317316, “Synthesis and Evaluation of Some New 4H-Pyran Derivatives as Antioxidant, Antibacterial and Anti-HCT-116 Cells of CRC, with Molecular Docking, Antiproliferative, Apoptotic and ADME Investigations” (Pharmaceuticals, 2022)
# Values joined by “and” are separate entries in the source; they are usually repeats but may differ in a detail not shown here. Equal values may be shown once. Read-outs that look alike come from different tables or passages of the source.
# How the values were obtained:
# [1] = DPPH radical scavenging assay; conditions: for IC50: 0.03 to 1 mg/mL, 1 h, mean ± SD, triplicate, read-out: IC50 (mM) for DPPH Scavenging Potency
# Method in brief: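 Ethanolic DPPH mixed with samples at 0.03 to 1 mg/mL, kept 1 h at room temperature in darkness, then absorbance read at 519 nm against compound-free control. Scavenging percentage computed as (1 − Acompound/Acontrol) × 100; IC50 interpolated from scavenging-versus-concentration plot.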
# [2] = Reducing power assay (FRAC, Fe3+ to Fe2+); conditions: 0-1 mg/mL, absorbance 700 nm
# Method in brief: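 Oyaizu method: compound (0–1 mg/mL) incubated with 0.2 M phosphate buffer pH 6.6 and 1% K3Fe(CN)6 at 50 °C for 20 min, then TCA, centrifugation, and 0.1% FeCl3 added to supernatant. Absorbance read at 700 nm; EC50 expressed in mM, BHT as reference.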
# B. subtilis (ATCC 6633) = test: Antibacterial agar diffusion method (inhibition zone); format: cell-based
# Method in brief: (§1)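 IC50 values come from residual colony counts versus initial inoculum: cells at 2 ×10^7 CFU/mL in sterile BHI incubated with compound under shaking, 60 min, 37 °C, then plated for 24 h. Zone assays used agar diffusion with ampicillin (10 µg/well) control.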
# E. coli (ATCC 25966) = test: as above; format: cell-based; conditions: E. coil (ATCC 25966)
# Method in brief: as §1
# E. faecalis (ATCC 29122) = test: as above; format: cell-based
# Method in brief: as §1
# HCT-116 cells = test: Cell viability (cytotoxicity, LDH release) assay; format: cell-based; conditions: Homo sapiens, 24 h; for viability at 100 µg/mL: read-out: percent of viable cells
# Method in brief: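 Human colorectal HCT-116 cells exposed to compounds at 10, 25, 50 and 100 µg/mL in DMEM with 10% FBS for 24 h at 37 °C. LDH released into the supernatant measured at 600 nm; viability given as % of untreated control OD (mean ± SD, n = 3), 0.1% Triton X-100 as positive control.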
# CDK2/CyclinA2 enzyme = target: T1, CDK2/CyclinA2 enzyme (Homo sapiens, UniProt P24941); test: In vitro CDK2 inhibitory assay (Kinase-Glo); format: biochemical; conditions: for IC50: deduced from curves over 0.01-10 µM, read-out: IC50 against CDK2
# T1 construct: purchased BPS Biosciences, San Diego, CA, USA 79599
# Procedure: To further substantiate the promising results of the docking analyses of pyrans 4d and 4K in the ATP active site of CDK2, their in vitro potencies to inhibit the enzyme activity were evaluated over a concentration range of 0.01−10 µM.
# CDK-2 inhibition activity of the studied compounds 4d and 4k was evaluated using a commercial CDK2 […] (cat. no.: 79599; BPS Biosciences, San Diego, CA, USA) following the manufacturer’s instructions. Briefly, different concentrations of each compound or the positive control BMS-265246 (0.01, 0. 1, 1 or 10 µM) were incubated with 20 µL of diluted CDK2/CyclinA2 enzyme at 30 °C for 45 min. Following the addition of 50 µL Kinase-Glo® Reagent to each well, the plate was incubated at room temperature for 15 min. Then, the luminescence signal was measured using the microplate reader. The CDK2 inhibitory activity was expressed as inhibition percentage, which was determined by comparison with a control experiment for comparative purposes. IC50 values were deduced from the curves. All measurements were performed in triplicate.
# [3] = read-out: Mean IC50 (µM) of cytotoxicity
# [4] = read-out: Mean IC50 (µg/mL) of cytotoxicity
Structure (SMILES),IC50 [1],DPPH Radical Scavenging Effenciency (%) at 1 mg/mL [1],EC50 [2],IZ (mm) (B. subtilis (ATCC 6633)),IZ (mm) (E. coli (ATCC 25966)),IZ (mm) (E. faecalis (ATCC 29122)),viability at 100 µg/mL (HCT-116 cells),IC50 (HCT-116 cells; [3]),IC50 (HCT-116 cells; [4]),decrease of CDK2 activity (CDK2/CyclinA2 enzyme; at 0.01 µM),decrease of CDK2 activity (CDK2/CyclinA2 enzyme; at 0.1 µM),decrease of CDK2 activity (CDK2/CyclinA2 enzyme; at 1 µM),decrease of CDK2 activity (CDK2/CyclinA2 enzyme; at 10 µM),IC50 (CDK2/CyclinA2 enzyme)
"COc1cc(C2C(C#N)=C(N)OC(C)=C2C(=O)OCc2ccccc2)cc(OC)c1OC (stereo not shown) [4d, 6-Amino-5-cyano-2-methyl-4-(3,4,5-trimethoxy-phenyl)-4H-pyran-3-carboxylic acid benzyl ester]",0.504 ± 0.032 mM,65.25% and 65.25 ± 1.77%,149 ± 16 µM,12.00 ± 1.41 mm,3.5 ± 0.71 mm,14.50 mm and 14.50 ± 0.71 mm,11 to 32.5%,75.1 ± 5.09 µM,32.8 ± 2.22 µg/mL,26.9%,41.5%,72.5%,89%,143 nM
"CC1=C(C(=O)OCc2ccccc2)C(c2ccc(C#N)cc2)C(C#N)=C(N)O1 (stereo not shown) [4k, 6-Amino-5-cyano-4-(4-cyano-phenyl)-2-methyl-4H-pyran-3-carboxylic acid benzyl ester]",1.05 ± 0.075 mM,40.55 ± 2.19%,1560 ± 102 µM,4.50 ± 0.71 mm,4.5 ± 0.71 mm,5.50 ± 0.71 mm,11 to 32.5%,85.9 ± 7.61 µM,31.9 ± 2.83 µg/mL,21.9%,42.4%,66.3%,83.6%,214 nM
